Experimental data published in US4196288A, “Ergoline derivatives and a process for their preparation” (Societa Farmaceutici Italia S.p.A., priority 1976, dated 1980).
Where two headings read alike, the source gives them in different places.

Tests used:
[1] = tested on: nidation; assay: Nidation inhibition test in rats (anti-prolactin activity; absence of implantation sites); format: in vivo, rat (Sprague-Dowley); conditions: Rattus norvegicus
Source text: Prolactin is considered to be the only hypophysial hormone involved in the maintenance of the first part of pregnancy in rats.
For the assessment of the anti-prolactin activity, the nidation inhibition test (M.C. Shelesnyak, Amer. J. Physiol., 180, 47, 1955) in rats was employed. For the ergoline derivatives this test is considered to be correlated with prolactin-inhibiting ability (K. Rezabek et al., J. Pharm. Sci., 64, 1045, 1976).
Adult female rats, of the Sprague-Dowley strain, in proestrus were mated with fertile males and their vaginal smears were examined the next morning. The presence of spermatozoa was considered evidence of impregnation and onset of pregnancy (day 1).
The compounds to be tested were administered orally or subcutaneously to groups of from six to eight rats on day 3. On day 14, the animals were sacrificed and the uterus was examined for the presence of implantation sites. The absence of implantation sites was taken as the criterion of anti-prolactin activity.
Several doses were tested for the ED50 evaluation.
As the reference standard Bromocriptine was used, this being well known both for its anti-nidation (E. Fluckiger and H. R. Wagner, Experientia, 24, 1130, 1968) and its anti-prolactin activity (C. L. Brooks and C. W. Welsch, Proc. Soc. Exp. Bio. Med., 146, 863, 1974).

[2] = Emetic activity in dogs (intravenous); conditions: dog, in vivo, male beagle dogs, i.v., observed for 1 hour after treatment, read-out: ≅ED50, emetic activity in dogs
Source text: The emetic activity of some of the compounds was investigated by intravenous administration to male beagle dogs weighing 15-20 kg. […] Five to six animals per dose were employed for the ED50 evaluation.

[3] = sc, rats, s.c., dosed on day 3, uterus examined on day 14, read-out: ≅ED50, nidation inhibition in rats (subcutaneous treatment)
[4] = rats, os (oral), dosed on day 3, uterus examined on day 14, read-out: ≅ED50, nidation inhibition in rats (oral treatment)

What does the source list for `CC(C)C[C@H]1C(=O)N2CCC[C@H]2[C@]2(O)O[C@](NC(=O)[C@@H]3C=C4c5cccc6[nH]c(Br)c(c56)C[C@H]4N(C)C3)(C(C)C)C(=O)N12` [Bromocriptine, reference compound]?
ED50 ([1]; po, read-out: ≅ED50, nidation inhibition in rats (oral treatment)): ~8 mg/kg; ED50 ([1]; sc, read-out: ≅ED50, nidation inhibition in rats (subcutaneous treatment)): ~1 mg/kg; TD50 at 1 h [2]: ~0.007 mg/kg

Which results are given for `CN1CC(C(=O)CN2CCCCC2)C[C@@H]2c3cccc4[nH]cc(c34)C[C@H]21` (stereo partly shown) [Compound 611, 6-Methyl-8-piperidinoacetylergoline]?
ED50 [1, 3]: ~1 mg/kg; ED50 [1, 4]: ~0.5 mg/kg

For `CN1CC(C(=O)COC(=O)c2cncc(Br)c2)C[C@@H]2c3cccc4[nH]cc(c34)C[C@H]21` (stereo partly shown) [Compound 613, 6-Methyl-8-(5'-bromonicotinoyloxyacetyl)ergoline], which ED50 [1, 3] is on record?
The ED50 was ~0.5 mg/kg.

What about the ED50 [1, 4] of the same molecule?
Its ED50 is ~0.5 mg/kg.

What about the TD50 at 1 h [2] of the same molecule?
The TD50 at 1 h was ~0.045 mg/kg.

For `CN1CC(C(=O)CO)C[C@@H]2c3cccc4[nH]cc(c34)C[C@H]21` (stereo partly shown) [Compound 615, 6-Methyl-8-hydroxyacetylergoline], which ED50 [1, 3] is on record?
The ED50 was ~0.5 mg/kg.

What about the ED50 [1, 4] of the same molecule?
The ED50 was ~0.5 mg/kg.

And the TD50 at 1 h [2]?
The TD50 at 1 h was ~0.025 mg/kg.

For `CN1CC(C(=O)COC(=O)c2ccncc2)C[C@@H]2c3cccc4[nH]cc(c34)C[C@H]21` (stereo partly shown) [Compound 991, 8-Isonicotinoyloxyacetyl-6-methylergoline], which ED50 [1, 3] is on record?
Its ED50 is ~2 mg/kg.

And the ED50 [1, 4]?
Its ED50 is ~2 mg/kg.

What does the source list for `CCCCCC(=O)OCC(=O)C1C[C@@H]2c3cccc4[nH]cc(c34)C[C@H]2N(C)C1` (stereo partly shown) [Compound 992, 8-Caproyloxyacetyl-6-methylergoline]?
ED50 [1, 3]: ~1 mg/kg; ED50 [1, 4]: ~0.5 mg/kg

Which results are given for `CN1CC(C(=O)COC(=O)c2ccccc2)C[C@@H]2c3cccc4[nH]cc(c34)C[C@H]21` (stereo partly shown) [Compound 1000, 8-Benzoyloxyacetyl-6-methylergoline]?
ED50 [1, 3]: ~1 mg/kg; ED50 [1, 4]: ~0.5 mg/kg

Which ED50 [1, 3] does the source give for `CN1CC(C(=O)COC(=O)C(C)(C)C)C[C@@H]2c3cccc4[nH]cc(c34)C[C@H]21` (stereo partly shown) [Compound 1011, 8-Pivaloyloxyacetyl-6-methylergoline] here?
The ED50 was ~1 mg/kg.

And the ED50 [1, 4]?
Its ED50 is ~0.5 mg/kg.

With `CN1CC(C(=O)COC(=O)c2cccnc2)C[C@@H]2c3cccc4[nH]cc(c34)C[C@H]21` (stereo partly shown) [Compound 1012, 8-Nicotinoyloxyacetyl-6-methylergoline] as the molecule, how does the ED50 [1, 3] read?
Its ED50 is ~1 mg/kg.

What about the ED50 [1, 4] of the same molecule?
The ED50 was ~1 mg/kg.

Which results are given for `COc1cccc(OC)c1C(=O)OCC(=O)C1C[C@@H]2c3cccc4[nH]cc(c34)C[C@H]2N(C)C1` (stereo partly shown) [Compound 1013, 8-(2',6'-dimethoxybenzoyloxyacetyl)-6-methylergoline]?
ED50 [1, 3]: ~1 mg/kg; ED50 [1, 4]: ~0.5 mg/kg

Which results are given for `CN1CCN(CC(=O)C2C[C@@H]3c4cccc5[nH]cc(c45)C[C@H]3N(C)C2)CC1` (stereo partly shown) [Compound 1014, 6-Methyl-8-(4'-methylpiperazino)acetylergoline]?
ED50 [1, 3]: ~1 mg/kg; ED50 [1, 4]: ~1 mg/kg
